Measurements taken from the supplement of paper PMC10307832.

Experiments:
Assay in all cases: relative viability (nuclei count vs DMSO), 5 days (fraction); higher = more cells survive
Imatinib + OSI-027 = compound: Cc1ccc(NC(=O)c2ccc(CN3CCN(C)CC3)cc2)cc1Nc1nccc(-c2cccnc2)n1 [Imatinib] + COc1cccc2cc(-c3nc([C@H]4CC[C@H](C(=O)O)CC4)n4ncnc(N)c34)[nH]c12 [OSI-027] (partner 0.5 µM)
Procedure, shortened: (§1)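 For relative viability, nuclei counts in treated wells were divided by those in vehicle wells. Lung cancer cell lines had been pin-tool dosed in 1536-well plates the day after seeding and cultured for 5 days, then fixed and stained in one step (final 0.05% Triton X-100, 1% formaldehyde, 1 ug/ml Hoechst) and imaged at 4×. Doses were one drug alone or a fixed anchor-drug dose plus five library-drug doses (not always all listed) in √10 steps, and values are duplicate-plate medians.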

Imatinib + Decitabine = compound: Cc1ccc(NC(=O)c2ccc(CN3CCN(C)CC3)cc2)cc1Nc1nccc(-c2cccnc2)n1 [Imatinib] + Nc1ncn([C@H]2C[C@H](O)[C@@H](CO)O2)c(=O)n1 [Decitabine] (partner 2 µM)
Procedure, shortened: as §1

Imatinib + Olaparib = compound: Cc1ccc(NC(=O)c2ccc(CN3CCN(C)CC3)cc2)cc1Nc1nccc(-c2cccnc2)n1 [Imatinib] + O=C(c1cc(Cc2n[nH]c(=O)c3ccccc23)ccc1F)N1CCN(C(=O)C2CC2)CC1 [Olaparib] (partner 8 µM)
Procedure, shortened: as §1

Imatinib + AZD7762 = compound: Cc1ccc(NC(=O)c2ccc(CN3CCN(C)CC3)cc2)cc1Nc1nccc(-c2cccnc2)n1 [Imatinib] + NC(=O)Nc1cc(-c2cccc(F)c2)sc1C(=O)N[C@H]1CCCNC1 [AZD7762] (partner 0.2 µM)
Procedure, shortened: as §1

Row | Cell Line | relative viability (Imatinib + OSI-027; first compound 0.02 µM) | relative viability (Imatinib + OSI-027; first compound 0.06325 µM) | relative viability (Imatinib + OSI-027; first compound 0.2 µM) | relative viability (Imatinib + OSI-027; first compound 0.6325 µM) | relative viability (Imatinib + OSI-027; first compound 2 µM) | relative viability (Imatinib + Decitabine; first compound 0.02 µM) | relative viability (Imatinib + Decitabine; first compound 0.06325 µM) | relative viability (Imatinib + Decitabine; first compound 0.2 µM) | relative viability (Imatinib + Decitabine; first compound 0.6325 µM) | relative viability (Imatinib + Decitabine; first compound 2 µM) | relative viability (Imatinib + Olaparib; first compound 0.02 µM) | relative viability (Imatinib + Olaparib; first compound 0.06325 µM) | relative viability (Imatinib + Olaparib; first compound 0.2 µM) | relative viability (Imatinib + Olaparib; first compound 0.6325 µM) | relative viability (Imatinib + Olaparib; first compound 2 µM) | relative viability (Imatinib + AZD7762; first compound 0.02 µM) | relative viability (Imatinib + AZD7762; first compound 0.06325 µM) | relative viability (Imatinib + AZD7762; first compound 0.2 µM) | relative viability (Imatinib + AZD7762; first compound 0.6325 µM) | relative viability (Imatinib + AZD7762; first compound 2 µM)
1 | NCI-H661 | 0.738 | 0.818 | 0.802 | 0.645 | 0.695 | 0.597 | 0.592 | 0.532 | 0.585 | 0.613 | 0.747 | 0.94 | 0.853 | 0.773 | 0.703 | – | – | – | – | –
2 | NCI-H1299 | – | – | – | – | – | – | – | – | – | – | 0.987 | 0.948 | 1.01 | 0.983 | 0.97 | – | – | – | – | –
3 | NCI-H1563 | 0.825 | 0.803 | 0.774 | 0.743 | 0.731 | – | – | – | – | – | – | – | – | – | – | – | – | – | – | –
4 | NCI-H1650 | 0.629 | 0.481 | 0.39 | 0.544 | 0.512 | 0.476 | 0.367 | 0.42 | 0.371 | 0.425 | 1 | 0.938 | 0.944 | 0.859 | 0.84 | – | – | – | – | –
5 | NCI-H1666 | – | – | – | – | – | 0.699 | 0.716 | 0.779 | 0.796 | 0.727 | 0.734 | 0.763 | 0.769 | 0.833 | 0.74 | 0.902 | 0.873 | 0.792 | 0.849 | 0.809
6 | NCI-H1703 | – | – | – | – | – | – | – | – | – | – | 0.329 | 0.292 | 0.262 | 0.146 | 0.177 | 0.135 | – | 0.103 | 0.124 | 0.114
7 | NCI-H2009 | 0.666 | – | 0.672 | 0.623 | 0.582 | 0.434 | 0.346 | 0.346 | 0.425 | 0.363 | 0.692 | 0.882 | 0.796 | 0.671 | 0.661 | – | – | – | – | –
8 | NCI-H2023 | 0.524 | 0.303 | 0.426 | 0.314 | 0.334 | 0.228 | 0.252 | 0.24 | 0.22 | 0.223 | 0.552 | 0.472 | 0.45 | 0.62 | 0.408 | – | – | – | – | –
9 | NCI-H2228 | 0.755 | – | 0.489 | 0.423 | 0.478 | – | – | – | – | – | 0.597 | 1.13 | 0.684 | 0.681 | 0.542 | – | – | – | – | –
10 | SK-LU-1 | 0.332 | 0.409 | 0.319 | 0.264 | 0.365 | 0.686 | 0.543 | 0.588 | 0.598 | 0.645 | 0.379 | 0.457 | 0.462 | – | – | – | – | – | – | –
11 | SK-MES-1 | 0.717 | 0.407 | 0.642 | 0.521 | 0.597 | 0.379 | 0.412 | 0.413 | 0.417 | 0.334 | 0.778 | 0.742 | 0.92 | 0.684 | 0.711 | – | – | – | – | –
12 | SW 1573 | 0.708 | 0.24 | 0.685 | 0.573 | 0.548 | 0.646 | 0.4 | 0.575 | 0.471 | 0.437 | 0.62 | 0.704 | 0.425 | 0.485 | 0.559 | – | – | – | – | –
13 | UMC-11 | 0.514 | 0.542 | 0.64 | 0.499 | 0.456 | 0.554 | 0.615 | 0.59 | 0.619 | 0.683 | 0.352 | 0.514 | 0.366 | 0.41 | 0.301 | – | – | – | – | –
